# Test results published in patent publication US5622960A, “Topoisomerase II inhibitors and therapeutic uses therefor” (The United States of America as represented by the …, priority 1992, dated 1997).
# “Also recorded” adds a separate entry of the source.
# Columns and labels:
# [1] = tested on: top 2 (HL-60 nuclear extract); test: Induction of DNA double-strand breaks in SV40 DNA in presence of HL-60 nuclear extract; type: biochemical
# Description: (§1) Chemicals, and enzymes: Azatoxin and its derivatives, as well as the demethyldesoxypodophyllotoxin (DMDP) and demethylepipodophyllotoxin (DMEP), were synthesized by conventional methods. The compounds m-AMSA and mitoxantrone were obtained from the Drug Synthesis and Chemistry Branch, National Cancer Institute, Bethesda, Md. The compounds VP-16 and VM-26 were obtained from Bristol-Myers Company (Wallingford, Conn.). Drug stock solutions were made in dimethylsulfoxide at 10 mM. Further dilutions were made in distilled water. Various other reagents, including simian virus 40 (SV40) and c-myc human DNA inserts in plasmid pBR322, restriction endonucleases, DNA topoisomerase I, T4 polynucleotide kinase, calf intestine phosphatase, agarose and polyacrylamide/bis, were purchased from Bethesda Research Laboratories (Gaithersburg, Md.), from the American Type Culture Collection (Rockville, Md.) or from New England Biolabs (Beverly, Mass.). [Gamma-^32 P]ATP was purchased from New England Nuclear Research Products (Boston, Mass.).
# Preparation of end-labeled DNA fragments: DNA fragments were 5' end-labeled as described, for example, by Fesen and Pommier (1989), supra. Briefly, native DNA was first linearized with a restriction enzyme, then the 5'-DNA termini were dephosphorylated with calf alkaline phosphatase and labeled with [gamma-^32 P]ATP using T4 polynucleotide kinase. For double-strand breaks assays using HL-60 nuclear extract, SV40 DNA was digested with BclI endonuclease and labeled at both DNA termini. For sequencing experiments, SV40 and c-myc DNAs were first 5'-end labeled at the XhoII and XbaI restriction sites, respectively. Then, in order to generate uniquely 5'-end-labeled fragments, labeled DNA was subjected to a second enzyme digestion, PflMI for SV40, and EcoRI plus HindIII for c-myc DNA. The resulting DNA fragments were separated by agarose gel electrophoresis and isolated by electroelution. […]
# For agarose gel analysis, 3 μl (10×) loading buffer (0.3% bromophenol blue, 16% Ficoll, 10 mM Na2 HPO4) was added to each sample which was then heated at 65° C. for 1-2 minutes before loading into an agarose gel made in (1×) TBE (89 mM Tris, 89 mM boric acid, 2 mM EDTA, pH8), in accordance with Fesen & Pommier (1989), supra. […] The quantification of drug-induced DNA double-strand breaks in the presence of HL-60 nuclear extract was effected as described in the next paragraph.
# Radioactive gels were counted in betascope 603 blot analyzer. […] Drug-induced cleavage was expressed as: [formula] where C. and T. are the counts for cleaved and total DNA, respectively, in presence of nuclear extract without drug.
# Drug-induced DNA double-strand breaks were measured first in SV40 DNA in the presence of HL-60 nuclear extracts. […]
# [2] = biological target: T1, purified murine leukemia top 2 (Mus musculus, UniProt Q01320); test: Sequencing of topoisomerase II cleavage sites (SV40 and c-myc DNA); type: biochemical; settings: for top 2 cleavage sites induced (number/amount): SV40 and c-myc DNA, purified murine top 2
# T1 construct: single 170 kDa band on silver-stained SDS-PAGE
# Description: as §1
# (§2) DNA topoisomerase II was purified from mouse leukemia L1210 cell nuclei as described, for example, by Pommier et al. (1985), supra, and was stored at -70° C. in 40% (v/v) glycerol, 0.35 M NaCl, 5 mM MgCl2, 1 mM KH2 PO4, 0.2 mM dithiothreitol and 0.1 mM phenylmethanesulfonyl fluoride (pH 6.4). The purified enzyme yielded a single 170 kDa band after silver staining of SDS-polyacrylamide gels, in accordance with the description of Pommier et al., Cancer Res. 46: 3075-81 (1986).
# Preparation of end-labeled DNA fragments: DNA fragments were 5' end-labeled as described, for example, by Fesen and Pommier (1989), supra. Briefly, native DNA was first linearized with a restriction enzyme, then the 5'-DNA termini were dephosphorylated with calf alkaline phosphatase and labeled with [gamma-^32 P]ATP using T4 polynucleotide kinase. For double-strand breaks assays using HL-60 nuclear extract, SV40 DNA was digested with BclI endonuclease and labeled at both DNA termini. For sequencing experiments, SV40 and c-myc DNAs were first 5'-end labeled at the XhoII and XbaI restriction sites, respectively. Then, in order to generate uniquely 5'-end-labeled fragments, labeled DNA was subjected to a second enzyme digestion, PflMI for SV40, and EcoRI plus HindIII for c-myc DNA. The resulting DNA fragments were separated by agarose gel electrophoresis and isolated by electroelution. Purification by phenol-chloroform extraction and ethanol precipitation were included between each step and at the end of the labeling procedures, pursuant to Pommier et al., J. Molec. Biol. 222: 909-24 (1991).
# Topoisomerase II-induced DNA cleavage reactions: DNA fragments were equilibrated with or without drug in 10 mM Tris-HCl, pH 7.5, 50 mM KCl, 5 mM MgCl2 0.1 mM EDTA, 1 mM ATP and 15 μg/ml bovine serum albumin for 5 minutes before addition of purified topoisomerase II (40 to 70 ng) or HL-60 nuclear extract in 20 μl final reaction volume. Reactions were stopped by adding sodium dodecyl sulfate (SDS) to a final concentration of 1% and proteinase K to 400 μg/ml, followed by incubation for 1 hour at 40° C.
# For DNA sequence analysis, samples were precipitated with ethanol and resuspended in 2.5 μl loading buffer (80% formamide, 10 mM NaOH, 1 mM EDTA, 0.1% xylene cyanol and 0.1% bromophenol blue). Samples were heated to 90° C. and immediately loaded into DNA sequencing gels (6% polyacrylamide; 19:1, acrylamide:bis) containing 7M urea in (1×) TBE buffer. Electrophoresis was at 2500 V (60 W) for 4 hours. Gels were dried on 3M paper sheets and autoradiographed with Kodak XAR-2 film. See Pommier et al. (1991), supra.
# Induction of top 2 cleavage by azatoxin was tested directly with the use of purified murine leukemia top 2. […] Sites of cleavage were also determined by DNA sequencing in the 5' flank of c-myc first intron.
# [3] = tested on: tubulin; test: in vitro tubulin polymerization assay; type: biochemical
# Description: (§3) Thus, azatoxin effectively prevents tubulin polymerization in vitro at concentrations in the range of 1 to 10 μM.
# [4] = tested on: top 2; test: Inhibition of top 2-mediated relaxation of native SV40 DNA; type: biochemical, mouse
# Description: as §2
# Two different assays were conducted to illuminate the nature of azatoxin's effects vis-a-vis DNA relaxation. To study the inhibition of top 2 catalytic activity, topoisomerase reactions were performed with 0.4 μg native SV40 DNA in 30 μl reaction buffer for 30 minutes at 37° C. and stopped by adding SDS to a final concentration of 1% and proteinase K to 400 μg/ml, followed by incubation for 1 hour at 42° C., essentially as described by Fesen & Pommier (1989), supra. Agarose gel electrophoresis was performed in 1% gels made in Tris-Acetate-EDTA (TAE) buffer (40 mM Tris-Acetate, pH 7.6, 10 mM Na2 EDTA). Gels were run at 2 V/cm overnight, washed in water and then stained with 1 μM ethidium bromide for 45 minutes. After an additional 45 minutes destaining in 1 mM Mg2 SO4, the DNA was visualized under UV light and photographed with a Polaroid type 57 film.
# [5] = tested on: panel of sixty human tumor cells lines; test: Growth inhibition / cytotoxicity against NCI panel of sixty human tumor cell lines; type: cell-based
# Description: FIG. 1 is a graphical representation of results generated by testing the inhibitory activity of an illustrative compound within the present invention against panel of tumor cell lines which is a standard of the National Cancer Institute Developmental Therapeutics Program [GI50: "50% growth inhibition"; TGI: "[…]"; LC50: "50% lethal concentration"].
# See Yang et al., Cancer Res. 45:5872-76 (1985), and Liu (1989), supra, at 361-63. […] Pursuant to the convention of Paull et al., J. Nat'l Cancer Inst. […] See also Monks et al., J. Nat'l Cancer Inst. 83: 757-66 (1991), and Boyd, Principles & Practice of Oncology3:1-12 (1989).
# as §3
# [6] = tested on: cells (protein-linked DNA breaks); test: protein-linked DNA breaks in cells; type: cell-based; settings: compared to other top 2 inhibitors
# [7] = tested on: SV40 DNA; test: DNA unwinding (intercalation) assay with excess topoisomerase I; type: biochemical, simian virus 40
# Description: To assess DNA unwinding, see Pommier et al., Nucleic Acids Res. 15: 6713-31(1987), the DNA was relaxed first by treatment for 15 minutes with top 1 (20 units), after which the test agent was added. These steps were carried out at 37° C. DNA-agent-top 1 mixtures were incubated for an additional 30 minutes and then stopped as described above. Samples were then subjected to agarose gel electrophoresis as described above.
# This was also the case for the 2 azatoxin isomers, 8 and 10, and for the demethylepipodophyllotoxins, DMDP and DMEP. Similar results were obtained with supercoiled DNA.
# T1 sequence (Q01320 whole entry): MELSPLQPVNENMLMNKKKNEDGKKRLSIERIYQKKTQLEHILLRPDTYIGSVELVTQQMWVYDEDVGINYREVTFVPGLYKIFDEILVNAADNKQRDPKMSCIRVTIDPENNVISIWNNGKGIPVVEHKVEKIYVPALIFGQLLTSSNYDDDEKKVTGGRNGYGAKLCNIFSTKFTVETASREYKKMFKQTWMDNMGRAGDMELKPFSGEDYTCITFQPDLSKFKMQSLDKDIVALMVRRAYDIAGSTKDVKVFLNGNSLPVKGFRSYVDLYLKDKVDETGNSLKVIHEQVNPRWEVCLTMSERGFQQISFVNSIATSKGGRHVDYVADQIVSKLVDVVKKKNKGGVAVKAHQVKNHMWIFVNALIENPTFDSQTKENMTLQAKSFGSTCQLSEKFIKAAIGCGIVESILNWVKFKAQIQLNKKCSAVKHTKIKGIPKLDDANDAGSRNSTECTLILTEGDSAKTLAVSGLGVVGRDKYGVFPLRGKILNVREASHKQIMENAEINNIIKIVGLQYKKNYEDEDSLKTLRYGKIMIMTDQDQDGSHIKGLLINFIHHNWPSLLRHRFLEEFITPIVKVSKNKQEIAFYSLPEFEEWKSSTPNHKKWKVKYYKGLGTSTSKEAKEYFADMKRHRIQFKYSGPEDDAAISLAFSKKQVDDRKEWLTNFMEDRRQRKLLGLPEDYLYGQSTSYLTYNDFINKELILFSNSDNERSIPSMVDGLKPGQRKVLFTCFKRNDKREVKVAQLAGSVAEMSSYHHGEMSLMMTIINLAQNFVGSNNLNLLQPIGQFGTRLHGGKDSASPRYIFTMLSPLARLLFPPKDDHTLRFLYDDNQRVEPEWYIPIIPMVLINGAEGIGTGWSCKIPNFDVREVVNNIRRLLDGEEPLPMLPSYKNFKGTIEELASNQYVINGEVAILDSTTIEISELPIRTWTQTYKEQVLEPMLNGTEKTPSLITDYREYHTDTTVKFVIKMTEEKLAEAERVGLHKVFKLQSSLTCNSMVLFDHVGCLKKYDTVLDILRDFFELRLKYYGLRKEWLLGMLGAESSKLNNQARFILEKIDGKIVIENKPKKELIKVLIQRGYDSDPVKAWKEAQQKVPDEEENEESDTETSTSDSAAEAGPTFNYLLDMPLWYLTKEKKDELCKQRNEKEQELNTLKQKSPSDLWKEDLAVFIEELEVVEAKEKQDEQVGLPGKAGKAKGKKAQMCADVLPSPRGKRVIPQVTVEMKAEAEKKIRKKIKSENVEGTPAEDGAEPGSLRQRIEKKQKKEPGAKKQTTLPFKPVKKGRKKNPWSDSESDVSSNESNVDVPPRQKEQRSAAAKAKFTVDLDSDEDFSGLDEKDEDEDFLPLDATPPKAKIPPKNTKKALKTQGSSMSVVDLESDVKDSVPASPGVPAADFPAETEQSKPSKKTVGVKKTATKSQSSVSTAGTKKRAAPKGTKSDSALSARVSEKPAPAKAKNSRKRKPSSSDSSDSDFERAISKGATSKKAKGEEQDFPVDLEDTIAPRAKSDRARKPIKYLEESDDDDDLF
structure (smiles),measurement,setting,value
"COc1cc([C@@H]2c3[nH]c4ccccc4c3C[C@H]3COC(=O)N32)cc(OC)c1O [Azatoxin, 5R, 11aS-3-One-5,4,11,11a-tetrahydro-5-(3,5-dimethoxy-4-hydroxyphenyl) -1H, 6H-oxazolo[3', 4': 1,6]pyrido[3,4-b]indole]",DNA cleavage potency (in words),"[1]; SV40 DNA, HL-60 nuclear extract, compared to VP-16",comparable to that of VP-16
same,"cleavage above 10 μM, concentration dependence",[1]; above 10 μM,cleavage occurred at many sites and was proportional to the logarithm of azatoxin concentration
same,suppression of DNA cleavage at high drug concentrations,[1]; up to 1 mM,not suppressed at high drug concentrations (up to 1 mM)
same,top 2 cleavage potency (in words),[2],potent top 2 inhibitor
same,top 2 cleavage sites induced (number/amount),[2],induced many cleavage sites both in the SV40 and the c-myc DNA fragments
same,top 2 cleavage sites induced (number/amount),[2]; listed as azatoxin,"induced more cleavage sites than mitoxantrone, m-AMSA, VM-26 or VP-16; also recorded: induces the largest number of top 2 cleavage sites both in SV40 and c-myc DNA"
same,top 2 cleavage pattern,[2]; compared with other top 2 inhibitors,cleavage pattern differing from those induced by other top 2 inhibitors
same,tubulin inhibition (in words),[3],potent tubulin inhibitor
same,production of linear / nicked DNA,[4],produce a substantial amount of linear DNA without significant increased of nicked DNA
same,inhibition of top 2-mediated relaxation,"[4]; 30 minutes, 37° C.",inhibits top 2-mediated relaxation of native SV40 DNA
same,cytotoxicity to tumor cells (in words),[5]; FIG. 1 means graph,cytotoxicity of aratoxin to cells associated with disseminated cancers (leukemias) as well as several consolidated cancers (non-small cell lung and colon)
same,growth inhibition of human tumor cell lines (in words),"[5]; sixty cell lines: leukemia, melanoma, lung, colon, kidney, ovary, CNS",significant inhibitory activity
same,inducing protein-linked DNA breaks in cells,[6],very active in inducing protein-linked DNA breaks in cells
same,DNA unwinding / intercalation conclusion,[7],does not intercalate into DNA
same,DNA unwinding,"[7]; relaxed SV40 DNA, excess topoisomerase I, concentrations as high as 1 mM",did not induce detectable DNA unwinding even at drug concentrations as high as 1 mM
